# Results as given in patent US20080214399A1, “Enhanced amino acid formulations” (priority 2006, published 2008).
# Tested on: cotton cotyledons
# Assay: Cotton cotyledon bioassay: reduction of CPPU-induced ethylene production
# Format: in vivo, cotton (variety SG 105)
# Conditions: CPPU (200 μM) alone, reference = 1.00
# Procedure: A cotton bioassay system has been used in the laboratory to study the effect of formulations on AVG performance. […] One spray application of CPPU (forchlorfenuron) is made to the bottom (abaxial) and AVG was subsequently applied to the top (adaxial) surface of the cotyledons. […] Water was used as the carrier. Further dilutions were prepared as needed for foliar applications. All the data was subject to an analysis of variance, and the mean separations were determined with Duncan's new multiple range test at α=0.05. The present invention may be illustrated by the following representative examples: […]
compound,measurement,value
"O=C(Nc1ccccc1)Nc1ccnc(Cl)c1 [CPPU, forchlorfenuron]",Reduction as compared to CPPU-treated,1.00
